Measurements from US11155517B2, “4-substituted phenylamine derivatives and their use to protect crops by fighting undesired phytopathogenic micoorganisms” (PI INDUSTRIES LTD., priority 2016, dated 2021).

What was measured:
Type in all cases: cell-based
Rhizoctonia solani = Rhizoctonia solani (rice sheath blight/potato black scurf) in vitro test, radial growth on Potato Dextrose Agar; conditions: 168 h, 300 ppm, seven days, 25° C., read-out: % control compared to the untreated check (radial growth)
Pyricularia oryzae = assay: microbe, parasite or virus in culture; conditions: 168 h, read-out: % control compared to the untreated check (radial growth)
Colletotrichum capsici = Colletotrichum capsici (anthracnose) in vitro test, radial growth on Potato Dextrose Agar; conditions: Colletotrichum truncatum, 168 h; 300 ppm; seven days, 25° C.; read-out: % control compared to the untreated check (radial growth)
Botrytis cinerea = Botrytis cinerea (gray mold) in vitro test, radial growth on Potato Dextrose Agar; conditions: 168 h, 300 ppm, seven days, 22° C., read-out: % (control) compared to the untreated check (radial growth)
Alternaria solani = Alternaria solani (early blight of tomato/potato) in vitro test, radial growth on Potato Dextrose Agar; conditions: 168 h, 300 ppm, seven days, 25° C., read-out: % control compared to the untreated check (radial growth)
Septoria lycopersici = Septoria lycopersici (leaf spot of tomato) in vitro test, radial growth on Potato Dextrose Agar; conditions: 168 h, seven days, 25° C., read-out: % control compared to the untreated check (radial growth)

Compound | inhibition of growth at 300 ppm (Rhizoctonia solani) | inhibition of growth at 300 ppm (Pyricularia oryzae) | inhibition of growth at 300 ppm (Colletotrichum capsici) | inhibition of growth at 300 ppm (Botrytis cinerea) | inhibition of growth at 300 ppm (Alternaria solani) | inhibition of growth at 300 ppm (Septoria lycopersici)
CCN(C)C=Nc1cc(C)c(Cc2cc(Cl)cc(Cl)c2)cc1Cl [Compound 21, N′-(2-chloro-4-(3,5-dichlorobenzyl)-5-methylphenyl)-N-ethyl-N-methylformimidamide] | > 80% | > 75% | > 80% | > 80% | > 75% | 
Cc1cc(N=CN2CCCCC2)c(Cl)cc1Cc1cccc(F)c1 [Compound 39, N-(2-chloro-4-(3-fluorobenzyl)-5-methylphenyl)-1-(piperidin-1-yl)methanimine] | > 80% | > 75% | > 80% |  | > 75% | 
Cc1cc(N(C#N)C=N)c(C)cc1Cc1ccccc1F [Compound 64, N-cyano-N-(4-(2-fluorobenzyl)-2,5-dimethylphenyl)formimidamide] |  | > 75% |  |  |  | > 70%
Cc1cc(N=CN2CCSCC2)c(C)cc1Cc1ccccc1F [Compound 85, N-(4-(2-fluorobenzyl)-2,5-dimethylphenyl)-1-thiomorpholinomethanimine] | > 80% | > 75% | > 80% | > 80% | > 75% | 
CCN(C)C=Nc1cc(C)c(Cc2ccc(Cl)c(F)c2)cc1Cl [Compound 95, N′-(2-chloro-4-(4-chloro-3-fluorobenzyl)-5-methylphenyl)-N-ethyl-N-methylformimidamide] | > 80% | > 75% | > 80% | > 80% | > 75% | 
CCN(C)C=Nc1cc(C)c(Cc2ccccc2C#N)cc1Cl [Compound 100, N′-(2-chloro-4-(2-cyanobenzyl)-5-methylphenyl)-N-ethyl-N-methylformimidamide] | > 80% | > 75% | > 80% |  | > 75% | 
CCN(C)C=Nc1cc(C)c(Cc2cccc(C(C)C#N)c2)cc1C (centres unmarked) [Compound 107, N′-(4-(3-(1-cyanoethyl)benzyl)-2,5-dimethylphenyl)-N-ethyl-N-methylformimidamide] | > 80% | > 75% | > 80% | > 80% | > 75% | 
CCN(C)C=Nc1cc(C)c(Cc2ccccc2C)cc1Cl [Compound 122, N′-(2-chloro-5-methyl-4-(2-methylbenzyl)phenyl)-N-ethyl-N-methylformimidamide] | > 80% | > 75% | > 80% |  | > 75% | 
CCN(C)C=Nc1cc(C)c(Cc2cccc(Cl)c2F)cc1Cl [Compound 123, N′-(2-chloro-4-(3-chloro-2-fluorobenzyl)-5-methylphenyl)-N-ethyl-N-methylformimidamide] | > 80% | > 75% | > 80% | > 80% | > 75% | 
CCN(C)C=Nc1cc(C)c(Cc2cccc(OC(F)(F)F)c2)cc1Cl [Compound 124, N′-(2-chloro-5-methyl-4-(3-(trifluoromethoxy)benzyl)phenyl)-N-ethyl-N-methylformimidamide] | > 80% | > 75% | > 80% | > 80% | > 75% | 
CCN(C)C=Nc1cc(C)c(C(C#N)c2ccccc2)cc1C (centres unmarked) [Compound 127, N′-(4-(cyano(phenyl)methyl)-2,5-dimethylphenyl)-N-ethyl-N-methylformimidamide] | > 80% | > 75% | > 80% |  | > 75% | 
CCN(C)C=Nc1cc(C)c(Cc2cc(C)cc(F)c2)cc1Cl [Compound 140, N′-(2-chloro-4-(3-fluoro-5-methylbenzyl)-5-methylphenyl)-N-ethyl-N-methylformimidamide] | > 80% | > 75% | > 80% | > 80% | > 75% | 
CCN(C)C=Nc1cc(Cl)c(Cc2cccc(Cl)c2)cc1Cl [Compound 152, N′-(2,5-dichloro-4-(3-chlorobenzyl)phenyl)-N-ethyl-N-methylformimidamide] | > 80% | > 75% |  | > 80% | > 75% | 
CCN(C)C=Nc1cc(Cl)c(Cc2cccc(OC(F)(F)F)c2)cc1Cl [Compound 182, N′-(2,5-dichloro-4-(3-(trifluoromethoxy)benzyl)phenyl)-N-ethyl-N-methylformimidamide] | > 80% | > 75% |  | > 80% | > 75% | 
CCN(C)C=Nc1cc(C)c(Cc2c(F)cccc2F)cc1Cl [Compound 203, N′-(2-chloro-4-(2,6-difluorobenzyl)-5-methylphenyl)-N-ethyl-N-methylformimidamide] |  | > 75% | > 80% |  | > 75% | 
CCN(C)C=Nc1cc(C)c(Cc2cccnc2)cc1Cl [Compound 204, N′-(2-chloro-5-methyl-4-(pyridin-3-ylmethyl)phenyl)-N-ethyl-N-methylformimidamide] | > 80% | > 75% | > 80% | > 80% | > 75% | 
CCN(C)C=Nc1cc(C)c(Cc2cccc(C(F)(F)F)c2)cc1F [Compound 205, N-ethyl-N′-(2-fluoro-5-methyl-4-(3-(trifluoromethyl)benzyl)phenyl)-N-methylformimidamide] | > 80% | > 75% | > 80% |  | > 75% | 
CCN(C)C=Nc1cc(C)c(Cc2cccc(F)c2)cc1S(C)(=O)=O [Compound 216, N-ethyl-N′-(4-(3-fluorobenzyl)-5-methyl-2-(methylsulfonyl)phenyl)-N-methylformimidamide] | > 80% | > 75% |  |  | > 75% | > 70%
CCN(C)C=Nc1cc(C(F)(F)F)c(Cc2ccccc2C)cc1F [Compound 228, N-ethyl-N′-(2-fluoro-4-(2-methylbenzyl)-5-(trifluoromethyl)phenyl)-N-methylformimidamide] | > 80% | > 75% |  |  | > 75% | > 70%
CCN(C)C=Nc1cc(C(F)(F)F)c(Cc2cccc(Cl)c2)cc1F [Compound 229, N′-(4-(3-chlorobenzyl)-2-fluoro-5-(trifluoromethyl)phenyl)-N-ethyl-N-methylformimidamide] | > 80% | > 75% |  |  | > 75% | > 70%
CCN(C)C=Nc1cc(C(F)(F)F)c(Cc2cccc(F)c2)cc1F [Compound 230, N-ethyl-N′-(2-fluoro-4-(3-fluorobenzyl)-5-(trifluoromethyl)phenyl)-N-methylformimidamide] | > 80% | > 75% |  | > 80% | > 75% | 
CCN(C)C=Nc1cc(C(F)(F)F)c(Cc2cccc(C(F)(F)F)c2)cc1F [Compound 232, N-ethyl-N′-(2-fluoro-5-(trifluoromethyl)-4-(3-(trifluoromethyl)benzyl)phenyl)-N-methylformimidamide] | > 80% | > 75% |  | > 80% | > 75% | 
CCN(C)C=Nc1cc(C#N)c(Cc2ccccc2F)cc1C [Compound 247, N′-(5-cyano-4-(2-fluorobenzyl)-2-methylphenyl)-N-ethyl-N-methylformimidamide] | > 80% | > 75% |  | > 80% | > 75% | 
CCN(C)C=Nc1cc(C#N)c(Cc2cccc(C)c2)cc1C [Compound 251, N′-(5-cyano-2-methyl-4-(3-methylbenzyl)phenyl)-N-ethyl-N-methylformimidamide] | > 80% | > 75% |  | > 80% | > 75% | 
CCN(C)C=Nc1cc(C(F)(F)F)c(Cc2cccc(Cl)c2)cc1C1CC1 [Compound 265, N′-(4-(3-chlorobenzyl)-2-cyclopropyl-5-(trifluoromethyl)phenyl)-N-ethyl-N-methylformimidamide] | > 80% | > 75% |  | > 80% | > 75% | 
CCN(C)C=Nc1c(C)cc(Cc2ccc(C3CC3)cc2)c(C)c1C1CC1 [Compound 267, N′-(2-cyclopropyl-4-(4-cyclopropylbenzyl)-3,6-dimethylphenyl)-N-ethyl-N-methylformimidamide] | > 80% | > 75% |  | > 80% | > 75% | 
CCN(C)C=Nc1cc(C)c(Cc2cccc(C)c2)cc1S(C)(=O)=O [Compound 273, N-ethyl-N-methyl-N′-(5-methyl-4-(3-methylbenzyl)-2-(methylsulfonyl)phenyl)formimidamide] | > 80% | > 75% |  | > 80% | > 75% | 
